Measurements published in the NIST ThermoML archive (doi:10.1016/j.fluid.2011.05.017).

Test: wn = mass fraction of the nth substance listed
Details: 101 kPa, Liquid; for viscosity: Capillary tube (Ostwald / Ubbelohde) method; for mass density: Vibrating tube method

CCC(C)O (stereo not drawn) [butan-2-ol] + O
Details	mass density, 298.15 K [kg/m3]	mass density, 303.15 K [kg/m3]	mass density, 308.15 K [kg/m3]	viscosity, 298.15 K [mPa·s]	viscosity, 303.15 K [mPa·s]	viscosity, 308.15 K [mPa·s]
w1 = 0.7	863.8	859.6	855.1	3.342	2.795	2.377
w1 = 0.8	843.6	839.2	834.8	3.098	2.608	2.216
w1 = 0.9	822.8	818.8	813.5	2.812	2.375	2.029
